In ChEMBL document CHEMBL1201862, “PubChem BioAssay data set” (2004):
Values belong to the compound of their own block, whether it stands above or below them. Calls of active or inactive are those of the source.

Tests used:
[1] = cytotoxicity in HEK-293T cells, dose response, cytotoxicity control for BCR NF-kB inhibitor project, luminescence, B-cell screen hits (AID 489021); format: functional, cell-based;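 further: HEK-293T cells carrying an NF-kB luciferase reporter; cells exposed to compound for about 14 hours before viability readout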
[2] = biological target: Voltage-gated N-type calcium channel alpha-1B subunit/Amyloid beta A4 precursor protein-binding family A member 1 (Homo sapiens, UniProt Q00975+Q02410); assay: disruptors of Mint-PDZ/N-type channel peptide interaction – biochemical, HTRF, set 2, SAR follow-up (AID 434980); format: functional
Beta-galactosidase = Beta-galactosidase (Escherichia coli, UniProt Q8VNN2); assay: beta-galactosidase enzyme inhibitors and activators, dose response, artefact control for CCR6 antagonist project, biochemical, E. coli enzyme, set 3 (AID 504712); format: functional
[3] = biological target: T1, Carboxy-terminal domain RNA polymerase II polypeptide A small phosphatase 1 (Homo sapiens, UniProt Q9GZU7); assay: inhibitors of CTDSP1, concentration-response testing, biochemical assay, absorbance-based, actives from ultra-high-throughput screening (AID 540297); format: functional
T1 sequence (Q9GZU7 whole entry): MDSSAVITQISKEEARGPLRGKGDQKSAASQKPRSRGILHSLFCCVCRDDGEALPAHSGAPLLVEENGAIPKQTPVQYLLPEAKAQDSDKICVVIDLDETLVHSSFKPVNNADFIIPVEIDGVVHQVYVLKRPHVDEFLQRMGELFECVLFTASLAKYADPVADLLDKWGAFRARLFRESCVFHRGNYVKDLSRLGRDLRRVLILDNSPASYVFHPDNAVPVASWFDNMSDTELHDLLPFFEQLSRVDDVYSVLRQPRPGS

[4] = biological target: Eukaryotic translation initiation factor 4E (Mus musculus, UniProt P63073); assay: eIF4E–eIF4G protein interaction inhibitors, dose response, biochemical, TR-FRET (AID 855); format: functional;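 further: potency for disrupting eIF4E binding to eIF4GI seen as loss of FRET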
[5] = biological target: T2, Low molecular weight phosphotyrosine protein phosphatase (Homo sapiens, UniProt P24666); format: functional; settings: read-out: IC50_Mean
T2 sequence (P24666 whole entry): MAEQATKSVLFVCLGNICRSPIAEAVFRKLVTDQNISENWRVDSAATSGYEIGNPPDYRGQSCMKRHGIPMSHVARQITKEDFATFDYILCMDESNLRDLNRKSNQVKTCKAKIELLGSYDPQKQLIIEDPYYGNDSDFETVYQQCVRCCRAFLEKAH

[6] = biological target: Induced myeloid leukemia cell differentiation protein Mcl-1 (Homo sapiens, UniProt Q07820); format: functional
[7] = biological target: C-C chemokine receptor type 6 (Homo sapiens, UniProt P51684); assay: CCR6 receptor antagonists, dose response, cell-based, luminescent beta-arrestin readout (AID 504728); format: functional
[8] = biological target: T2, Low molecular weight phosphotyrosine protein phosphatase; format: functional; settings: read-out: IC50_Mean; remark: listed apart in the source
Genome polyprotein = Genome polyprotein (Hepatitis C virus, UniProt Q2Q167); assay: HCV core protein dimerization inhibitors, dose response, biochemical, TR-FRET (AID 2159); parameters: species or system Hepacivirus hominis;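 further: blocks dimerization of HCV core protein measured by TR-FRET between tagged core106 pairs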
[9] = biological target: T3, Calpain-2 catalytic subunit (Sus scrofa, UniProt P43367); assay: pig calpain II inhibitor potency, dose response, biochemical, fluorogenic peptide substrate (AID 1420); format: functional
T3 sequence (P43367 whole entry): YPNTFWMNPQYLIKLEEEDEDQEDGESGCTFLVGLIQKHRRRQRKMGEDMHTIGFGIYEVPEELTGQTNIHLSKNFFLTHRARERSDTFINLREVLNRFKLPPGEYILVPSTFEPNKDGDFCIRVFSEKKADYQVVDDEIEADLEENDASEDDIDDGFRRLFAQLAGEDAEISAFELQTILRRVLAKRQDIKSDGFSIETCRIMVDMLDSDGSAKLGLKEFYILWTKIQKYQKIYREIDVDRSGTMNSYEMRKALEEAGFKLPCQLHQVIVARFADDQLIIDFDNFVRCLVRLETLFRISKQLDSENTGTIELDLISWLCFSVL

[10] = biological target: T4, G-protein coupled receptor 35 (Homo sapiens, UniProt Q9HC97); assay: SAR Analysis for the identification of Selective Antagonists of ERK1/2 Activity in GPR35-Overexpressing U2OS Cells. [Related pubchem assays: 2079, 2058 ]; format: functional, cell-based
Prothrombin = Prothrombin (Bos taurus, UniProt P00735); assay: thrombin inhibition, dose response, biochemical, fluorescence polarization, uHTS hits (AID 602369); format: functional
[11] = biological target: 72 kDa type IV collagenase (Homo sapiens, UniProt P08253); assay: Dose Response validation of uHTS RPN11 inhibitor hits using a MMP-2 Fluorescence assay.; format: functional
[12] = biological target: 26S proteasome non-ATPase regulatory subunit 14 (Homo sapiens, UniProt O00487); assay: inhibition of proteasome subunit RPN11 – biochemical, fluorescence polarization, uHTS hits, confirmation (AID 602368); format: functional
[13] = biological target: T4, G-protein coupled receptor 35; assay: GPR35 antagonists blocking zaprinast-driven arrestin recruitment, primary screen, imaging, U2OS, beta-arrestin-GFP, zaprinast agonist (AID 2058); format: functional;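 further: antagonist potency meaning inhibition of agonist-induced arrestin redistribution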
[14] = biological target: T5, Tyrosine-protein phosphatase non-receptor type 22 (Homo sapiens, UniProt Q9Y2R2); assay: LYP (PTPN22) phosphatase inhibitor potency, SAR follow-up, biochemical, pCAP fluorogenic substrate, fluorescence, set 3 (AID 449727); format: functional
[15] = biological target: G-protein coupled receptor 55 (Homo sapiens, UniProt Q9Y2T6); assay: GPR55 antagonists, SAR follow-up, counter-screen for GPR35 antagonist project, imaging, image-based (AID 2397); format: functional
[16] = biological target: T5, Tyrosine-protein phosphatase non-receptor type 22; assay: SAR LYP1 Fluorescent Assay using OMFP substrate for In Vitro dose response studies - Set 3. [Related pubchem assays (depositor defined):AID1779, AID1784, AID2140, AID2686]; format: functional
[17] = biological target: Tyrosine-protein phosphatase non-receptor type 12 (Homo sapiens, UniProt Q05209); assay: SAR Selectivity Analysis of small molecule inhibitors of PEST using pCAP in a fluorescence assay. [Related pubchem assays (depositor defined):AID1779, AID1784, AID2135]; format: functional
Tyrosine-protein phosphatase non-receptor type 12, sequence (Q05209 whole entry): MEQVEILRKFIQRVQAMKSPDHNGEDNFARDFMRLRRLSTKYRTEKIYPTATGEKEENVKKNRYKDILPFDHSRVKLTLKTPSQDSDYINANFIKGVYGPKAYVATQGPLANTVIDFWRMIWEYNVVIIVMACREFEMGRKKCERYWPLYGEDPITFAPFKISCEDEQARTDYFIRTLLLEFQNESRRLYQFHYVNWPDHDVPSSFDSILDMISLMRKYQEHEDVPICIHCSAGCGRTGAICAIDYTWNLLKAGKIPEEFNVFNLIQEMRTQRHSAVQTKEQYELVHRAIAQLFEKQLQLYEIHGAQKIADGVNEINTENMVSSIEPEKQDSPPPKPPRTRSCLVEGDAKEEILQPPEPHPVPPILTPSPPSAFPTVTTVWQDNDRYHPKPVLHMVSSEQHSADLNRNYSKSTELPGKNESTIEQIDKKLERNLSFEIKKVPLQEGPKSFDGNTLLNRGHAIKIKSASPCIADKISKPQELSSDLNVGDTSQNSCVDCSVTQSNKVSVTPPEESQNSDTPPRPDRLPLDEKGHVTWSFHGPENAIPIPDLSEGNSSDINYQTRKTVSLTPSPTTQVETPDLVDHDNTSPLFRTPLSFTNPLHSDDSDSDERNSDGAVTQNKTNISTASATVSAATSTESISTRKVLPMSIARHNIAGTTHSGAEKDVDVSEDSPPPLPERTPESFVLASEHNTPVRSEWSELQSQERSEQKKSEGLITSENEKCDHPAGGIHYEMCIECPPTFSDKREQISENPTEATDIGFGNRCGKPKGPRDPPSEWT

T4 sequence (Q9HC97 whole entry): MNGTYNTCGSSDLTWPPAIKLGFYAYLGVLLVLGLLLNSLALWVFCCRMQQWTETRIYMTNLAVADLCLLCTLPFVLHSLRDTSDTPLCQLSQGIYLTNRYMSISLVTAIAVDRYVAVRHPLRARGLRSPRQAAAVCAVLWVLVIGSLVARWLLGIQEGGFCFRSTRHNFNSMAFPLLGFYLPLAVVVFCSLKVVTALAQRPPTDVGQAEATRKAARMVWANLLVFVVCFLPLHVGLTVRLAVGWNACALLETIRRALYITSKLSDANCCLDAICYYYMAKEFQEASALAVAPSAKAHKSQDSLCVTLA
T5 sequence (Q9Y2R2 whole entry): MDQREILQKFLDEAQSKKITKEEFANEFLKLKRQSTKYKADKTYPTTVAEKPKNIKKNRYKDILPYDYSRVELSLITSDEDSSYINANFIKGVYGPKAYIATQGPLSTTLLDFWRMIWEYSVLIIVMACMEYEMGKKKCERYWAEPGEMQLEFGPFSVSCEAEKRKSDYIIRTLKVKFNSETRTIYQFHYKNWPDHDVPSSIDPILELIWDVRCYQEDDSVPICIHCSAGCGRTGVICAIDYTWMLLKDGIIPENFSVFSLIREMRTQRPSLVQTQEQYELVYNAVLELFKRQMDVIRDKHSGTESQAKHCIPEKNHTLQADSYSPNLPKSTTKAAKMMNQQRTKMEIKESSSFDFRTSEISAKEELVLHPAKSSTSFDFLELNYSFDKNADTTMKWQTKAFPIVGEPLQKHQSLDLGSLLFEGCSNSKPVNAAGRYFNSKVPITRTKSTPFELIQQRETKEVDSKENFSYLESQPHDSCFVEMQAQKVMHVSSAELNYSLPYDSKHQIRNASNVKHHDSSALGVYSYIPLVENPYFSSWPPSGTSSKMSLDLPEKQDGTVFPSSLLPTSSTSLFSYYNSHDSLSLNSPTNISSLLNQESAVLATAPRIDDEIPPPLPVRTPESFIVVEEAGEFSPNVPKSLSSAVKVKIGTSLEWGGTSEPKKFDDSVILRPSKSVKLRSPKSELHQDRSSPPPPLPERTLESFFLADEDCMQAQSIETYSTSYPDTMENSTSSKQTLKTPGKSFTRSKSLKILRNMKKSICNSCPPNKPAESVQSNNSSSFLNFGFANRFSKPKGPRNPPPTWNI
72 kDa type IV collagenase, sequence (P08253 whole entry): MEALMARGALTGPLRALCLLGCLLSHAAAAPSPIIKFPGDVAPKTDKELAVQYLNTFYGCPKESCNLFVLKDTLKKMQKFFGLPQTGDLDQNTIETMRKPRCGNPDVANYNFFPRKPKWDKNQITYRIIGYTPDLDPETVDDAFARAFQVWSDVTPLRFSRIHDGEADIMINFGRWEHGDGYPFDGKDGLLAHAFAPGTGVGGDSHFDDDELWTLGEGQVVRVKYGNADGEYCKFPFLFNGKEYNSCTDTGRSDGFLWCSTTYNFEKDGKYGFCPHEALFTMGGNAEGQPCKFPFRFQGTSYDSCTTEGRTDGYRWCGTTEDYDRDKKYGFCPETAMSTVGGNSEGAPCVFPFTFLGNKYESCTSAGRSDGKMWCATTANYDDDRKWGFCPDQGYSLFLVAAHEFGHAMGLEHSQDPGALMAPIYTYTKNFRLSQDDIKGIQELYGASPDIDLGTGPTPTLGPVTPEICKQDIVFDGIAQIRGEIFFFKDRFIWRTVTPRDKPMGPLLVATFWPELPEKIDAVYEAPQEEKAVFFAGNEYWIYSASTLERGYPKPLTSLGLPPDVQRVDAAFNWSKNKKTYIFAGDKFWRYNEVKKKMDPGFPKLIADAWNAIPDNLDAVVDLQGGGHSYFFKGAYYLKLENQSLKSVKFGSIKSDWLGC
G-protein coupled receptor 55, sequence (Q9Y2T6 whole entry): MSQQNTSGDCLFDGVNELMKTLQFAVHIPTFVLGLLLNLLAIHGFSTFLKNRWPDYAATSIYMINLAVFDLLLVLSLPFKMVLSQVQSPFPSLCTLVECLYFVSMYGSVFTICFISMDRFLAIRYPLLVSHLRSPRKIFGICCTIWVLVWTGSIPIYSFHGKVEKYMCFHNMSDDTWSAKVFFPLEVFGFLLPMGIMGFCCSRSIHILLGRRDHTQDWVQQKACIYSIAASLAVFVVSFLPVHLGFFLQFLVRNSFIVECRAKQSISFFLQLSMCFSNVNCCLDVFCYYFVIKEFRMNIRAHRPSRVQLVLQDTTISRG
Beta-galactosidase, sequence (Q8VNN2 whole entry, the tested form may be a part): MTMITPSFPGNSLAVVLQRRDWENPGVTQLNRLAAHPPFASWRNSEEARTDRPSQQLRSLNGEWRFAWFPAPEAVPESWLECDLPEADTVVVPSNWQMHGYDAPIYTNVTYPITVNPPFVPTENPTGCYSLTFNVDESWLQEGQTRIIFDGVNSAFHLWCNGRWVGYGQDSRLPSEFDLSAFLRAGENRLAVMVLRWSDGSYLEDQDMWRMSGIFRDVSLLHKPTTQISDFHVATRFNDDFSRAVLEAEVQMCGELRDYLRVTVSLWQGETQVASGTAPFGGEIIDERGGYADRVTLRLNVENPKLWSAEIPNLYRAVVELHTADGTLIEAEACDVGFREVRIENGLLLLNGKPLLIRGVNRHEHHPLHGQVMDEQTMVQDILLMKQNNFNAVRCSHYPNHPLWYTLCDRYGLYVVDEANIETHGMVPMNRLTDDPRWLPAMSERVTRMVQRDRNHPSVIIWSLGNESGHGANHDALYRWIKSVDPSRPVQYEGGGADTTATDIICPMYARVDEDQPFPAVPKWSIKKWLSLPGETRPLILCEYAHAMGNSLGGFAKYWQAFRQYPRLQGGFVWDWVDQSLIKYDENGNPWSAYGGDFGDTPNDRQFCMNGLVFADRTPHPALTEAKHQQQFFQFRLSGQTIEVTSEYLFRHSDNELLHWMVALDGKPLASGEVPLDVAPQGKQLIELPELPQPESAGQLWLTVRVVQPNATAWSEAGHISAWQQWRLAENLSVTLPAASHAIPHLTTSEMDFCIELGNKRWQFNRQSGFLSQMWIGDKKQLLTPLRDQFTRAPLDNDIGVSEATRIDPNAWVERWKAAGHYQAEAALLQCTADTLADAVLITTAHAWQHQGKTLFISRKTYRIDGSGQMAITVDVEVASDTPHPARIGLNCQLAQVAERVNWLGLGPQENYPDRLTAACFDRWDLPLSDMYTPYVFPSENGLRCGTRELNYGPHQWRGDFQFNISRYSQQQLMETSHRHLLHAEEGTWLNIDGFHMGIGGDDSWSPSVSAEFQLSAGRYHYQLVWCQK
Induced myeloid leukemia cell differentiation protein Mcl-1, sequence (Q07820 whole entry): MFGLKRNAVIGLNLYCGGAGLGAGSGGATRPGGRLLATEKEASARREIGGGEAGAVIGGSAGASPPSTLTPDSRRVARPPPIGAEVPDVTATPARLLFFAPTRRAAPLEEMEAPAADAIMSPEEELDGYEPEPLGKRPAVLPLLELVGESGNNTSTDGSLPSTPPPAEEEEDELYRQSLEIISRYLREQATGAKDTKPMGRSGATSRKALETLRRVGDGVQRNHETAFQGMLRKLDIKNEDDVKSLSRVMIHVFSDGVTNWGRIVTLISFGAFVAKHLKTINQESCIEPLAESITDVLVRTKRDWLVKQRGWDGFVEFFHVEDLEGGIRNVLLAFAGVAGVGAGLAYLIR
C-C chemokine receptor type 6, sequence (P51684 whole entry): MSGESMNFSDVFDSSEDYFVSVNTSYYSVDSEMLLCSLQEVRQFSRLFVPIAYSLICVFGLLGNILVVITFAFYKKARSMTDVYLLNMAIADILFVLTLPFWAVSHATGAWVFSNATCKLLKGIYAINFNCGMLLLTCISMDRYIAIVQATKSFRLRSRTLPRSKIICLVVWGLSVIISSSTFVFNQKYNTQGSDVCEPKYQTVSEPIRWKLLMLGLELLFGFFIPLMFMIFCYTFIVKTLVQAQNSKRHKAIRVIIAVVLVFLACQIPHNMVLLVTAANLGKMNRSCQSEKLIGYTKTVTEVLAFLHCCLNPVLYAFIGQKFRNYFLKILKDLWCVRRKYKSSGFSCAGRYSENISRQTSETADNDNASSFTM
Genome polyprotein, sequence (Q2Q167 whole entry): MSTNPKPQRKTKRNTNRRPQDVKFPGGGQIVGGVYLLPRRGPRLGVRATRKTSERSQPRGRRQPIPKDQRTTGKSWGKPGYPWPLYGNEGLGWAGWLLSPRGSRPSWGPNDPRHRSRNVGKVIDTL
Eukaryotic translation initiation factor 4E, sequence (P63073 whole entry): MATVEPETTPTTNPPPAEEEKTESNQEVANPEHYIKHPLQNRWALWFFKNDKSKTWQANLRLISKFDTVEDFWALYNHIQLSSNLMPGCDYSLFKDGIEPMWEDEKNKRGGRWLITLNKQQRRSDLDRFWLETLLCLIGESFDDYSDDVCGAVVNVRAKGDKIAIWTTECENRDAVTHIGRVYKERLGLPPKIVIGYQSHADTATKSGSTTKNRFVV

SMILES: NC(=S)N=Nc1c(O)n(Cc2ccccc2)c2ccccc12
IC50 [1]: > 80 µM (inactive)

IC50 [2]: > 56.8 µM (inactive)
SMILES: O=C(NC1CCc2ccccc2C1)c1cc(-c2ccco2)nc2ccccc12 (stereo not given)

IC50 (Beta-galactosidase): > 66.6 µM (inactive)
IC50 [3]: 0.711 µM (active)
IC50 [4]: > 64 µM (inactive)
IC50 [5]: 1.98 µM (active)
IC50 [6]: 1.18 µM (active)
IC50 [7]: > 66.6 µM (inactive)
IC50 [8]: 2.89 µM (active)
IC50 (Genome polyprotein): > 49.8 µM (not active)
IC50 [9]: 4.56 µM (not active)
SMILES: O=C(N=Nc1c(O)[nH]c2ccc([N+](=O)[O-])cc12)c1cc(-c2ccccc2Cl)nc2ccccc12

IC50 [10]: 1.2 µM (active)
IC50 (Prothrombin): 23.9 µM (active)
IC50 [11]: > 100 µM (inactive)
IC50 [12]: 17.7 µM (active)
IC50 [13]: 0.564 µM (active)
IC50 [14]: 95.9 µM (active)
IC50 [15]: > 32 µM (inactive)
IC50 [16]: > 100 µM (inactive)
IC50 [17]: 58.8 µM (active)
SMILES: COc1ccc(/C=C2\SC(=S)N(CCCC(=O)Nc3cccc(C(=O)O)c3)C2=O)cc1OC
